Data taken from ChEMBL document CHEMBL3885881, “DrugMatrix”.

Species on record: Rattus norvegicus
Test: DrugMatrix - Regimen: Daily Repeat
Type: toxicity, organism-based, Sprague-Dawley
Parameters: regimen Daily Repeat, gender Male, age 6-8 weeks
Conditions: in vivo, po, 1200 mg/kg, route oral GAVAGE, dose level High, vehicle .5 % CMC; for ABSOLUTE BASOPHIL / ABSOLUTE EOSINOPHIL / ABSOLUTE LYMPHOCYTE / ABSOLUTE MONOCYTE / ABSOLUTE SEGMENTED NEUTROPHIL / BASOPHIL / EOSINOPHIL / ERYTHROCYTE COUNT / HEMATOCRIT / HEMOGLOBIN / LEUKOCYTE COUNT / LYMPHOCYTE / MEAN CORPUSCULAR HEMOGLOBIN / MEAN CORPUSCULAR HEMOGLOBIN CONCENTRATION / MEAN CORPUSCULAR VOLUME / MONOCYTE / NEUTROPHIL / NUCLEATED RED BLOOD CELLS / PLATELET COUNT: tissue Blood; for ALANINE AMINOTRANSFERASE / ALBUMIN / ALKALINE PHOSPHATASE / ASPARTATE AMINOTRANSFERASE / BLOOD UREA NITROGEN / CARBON DIOXIDE / CHLORIDE / CHOLESTEROL / CREATINE PHOSPHOKINASE / CREATININE / GLUCOSE / LACTATE DEHYDROGENASE / LIPASE / PHOSPHORUS / POTASSIUM / SODIUM / TOTAL BILIRUBIN / TOTAL PROTEIN / URIC ACID: tissue Plasma

COc1cc(C(=O)NC2CCCNC2)cc(OC)c1OC (stereo unspecified) [TROXIPIDE]
ABSOLUTE BASOPHIL (72 h, time 3 day): 0 CELLS/uL
ABSOLUTE EOSINOPHIL (72 h, time 3 day): 0 CELLS/uL
ABSOLUTE LYMPHOCYTE (72 h, time 3 day): 8315.67 CELLS/uL
ABSOLUTE MONOCYTE (72 h, time 3 day): 238.67 CELLS/uL
ABSOLUTE SEGMENTED NEUTROPHIL (72 h, time 3 day): 579 CELLS/uL
BASOPHIL (72 h, time 3 day): 0%
EOSINOPHIL (72 h, time 3 day): 0%
ERYTHROCYTE COUNT (72 h, time 3 day): 5.66 x10E6/uL
HEMATOCRIT (72 h, time 3 day): 34.93%
HEMOGLOBIN (72 h, time 3 day): 13.13 G/DL
LEUKOCYTE COUNT (72 h, time 3 day): 9.13 x10E3/uL
LYMPHOCYTE (72 h, time 3 day): 91%
MEAN CORPUSCULAR HEMOGLOBIN (72 h, time 3 day): 23.23 pg
MEAN CORPUSCULAR HEMOGLOBIN CONCENTRATION (72 h, time 3 day): 37.6 G/DL
MEAN CORPUSCULAR VOLUME (72 h, time 3 day): 61.73 fL
MONOCYTE (72 h, time 3 day): 2.33%
NEUTROPHIL (72 h, time 3 day): 6.67%
NUCLEATED RED BLOOD CELLS (72 h, time 3 day): 0 /100WBC
PLATELET COUNT (72 h, time 3 day): 1475 x10E3/uL
ALANINE AMINOTRANSFERASE (72 h, time 3 day): 56 u/L
ALBUMIN (72 h, time 3 day): 4.5 G/DL
ALKALINE PHOSPHATASE (72 h, time 3 day): 344 u/L
ASPARTATE AMINOTRANSFERASE (72 h, time 3 day): 88 u/L
BLOOD UREA NITROGEN (72 h, time 3 day): 12.67 mg/dL
CARBON DIOXIDE (72 h, time 3 day): 27.67 mmol/L
CHLORIDE (72 h, time 3 day): 106.33 MEQ/L
CHOLESTEROL (72 h, time 3 day): 80.33 mg/dL
CREATINE PHOSPHOKINASE (72 h, time 3 day): 209.33 u/L
CREATININE (72 h, time 3 day): 0.21 mg/dL
GLUCOSE (72 h, time 3 day): 138.33 mg/dL
LACTATE DEHYDROGENASE (72 h, time 3 day): 178 u/L
LIPASE (72 h, time 3 day): 8.67 u/L
PHOSPHORUS (72 h, time 3 day): 11.63 mg/dL
POTASSIUM (72 h, time 3 day): 6.42 MEQ/L
SODIUM (72 h, time 3 day): 150.7 MEQ/L
TOTAL BILIRUBIN (72 h, time 3 day): 0.2 mg/dL
TOTAL PROTEIN (72 h, time 3 day): 6.4 G/DL
URIC ACID (72 h, time 3 day): 1.2 mg/dL
ABSOLUTE BASOPHIL (120 h, time 5 day): 0 CELLS/uL
ABSOLUTE EOSINOPHIL (120 h, time 5 day): 55.33 CELLS/uL
ABSOLUTE LYMPHOCYTE (120 h, time 5 day): 13790.67 CELLS/uL
ABSOLUTE MONOCYTE (120 h, time 5 day): 0 CELLS/uL
ABSOLUTE SEGMENTED NEUTROPHIL (120 h, time 5 day): 1154 CELLS/uL
BASOPHIL (120 h, time 5 day): 0%
EOSINOPHIL (120 h, time 5 day): 0.33%
ERYTHROCYTE COUNT (120 h, time 5 day): 5.99 x10E6/uL
HEMATOCRIT (120 h, time 5 day): 37.5%
HEMOGLOBIN (120 h, time 5 day): 13.97 G/DL
LEUKOCYTE COUNT (120 h, time 5 day): 15 x10E3/uL
LYMPHOCYTE (120 h, time 5 day): 92%
MEAN CORPUSCULAR HEMOGLOBIN (120 h, time 5 day): 23.33 pg
MEAN CORPUSCULAR HEMOGLOBIN CONCENTRATION (120 h, time 5 day): 37.23 G/DL
MEAN CORPUSCULAR VOLUME (120 h, time 5 day): 62.67 fL
MONOCYTE (120 h, time 5 day): 0%
NEUTROPHIL (120 h, time 5 day): 7.67%
NUCLEATED RED BLOOD CELLS (120 h, time 5 day): 0 /100WBC
PLATELET COUNT (120 h, time 5 day): 1467.33 x10E3/uL
ALANINE AMINOTRANSFERASE (120 h, time 5 day): 59.33 u/L
ALBUMIN (120 h, time 5 day): 4.1 G/DL
ALKALINE PHOSPHATASE (120 h, time 5 day): 355.33 u/L
ASPARTATE AMINOTRANSFERASE (120 h, time 5 day): 81.33 u/L
BLOOD UREA NITROGEN (120 h, time 5 day): 15.33 mg/dL
CARBON DIOXIDE (120 h, time 5 day): 24.33 mmol/L
CHLORIDE (120 h, time 5 day): 106.33 MEQ/L
CHOLESTEROL (120 h, time 5 day): 65.33 mg/dL
CREATINE PHOSPHOKINASE (120 h, time 5 day): 150 u/L
CREATININE (120 h, time 5 day): 0.2 mg/dL
GLUCOSE (120 h, time 5 day): 176 mg/dL
LACTATE DEHYDROGENASE (120 h, time 5 day): 88.67 u/L
LIPASE (120 h, time 5 day): 8.33 u/L
PHOSPHORUS (120 h, time 5 day): 13.83 mg/dL
POTASSIUM (120 h, time 5 day): 6.2 MEQ/L
SODIUM (120 h, time 5 day): 146.57 MEQ/L
TOTAL BILIRUBIN (120 h, time 5 day): 0.17 mg/dL
TOTAL PROTEIN (120 h, time 5 day): 6.17 G/DL
URIC ACID (120 h, time 5 day): 2.43 mg/dL
